Data on 18 compounds can be found in PubChem BioAssay (NCI).

Several values for one entry are separate records, joined by “and”; a condition that tells them apart may be missing. Equal entries are not always repeated.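 Step 1: Grow cells in 96-well plates. Step 2: Expose to compound for 48 hours at 5 concentrations. Step 3: Interpolate endpoints linearly; if unreached, use highest concentration. Here, GI50 denotes the concentration required for 50% inhibition of growth. TGI: total growth inhibition.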

Assay in all cases: inhibition of tumour cell growth, NCI panel, 48 h
Test [1] concerns DMS 114 small cell lung.
Test [2] has as its system OVCAR-8 ovarian.
For test [3], the system named is M19-MEL melanoma.
The subject of test [4] is IGROV1 ovarian.
The subject of test [5] is HOP-62 NSCLC.
Test [6] relates to SK-MEL-5 melanoma.
Test [7] deals with DMS 273 small cell lung.
For test [8], the system named is U251 CNS.
Test [9] deals with KM12 colon.
Test [10] concerns UO-31 renal.
In test [11] the test system is XF 498 CNS.
Test [12] has as its system T-47D breast.

As for `CC1=NN(c2ccccc2)C(=O)C1N=Nc1ccc(Br)cc1C` (centres undefined), the TGI in test [1], in test [2], in [3], in test [4], in test [5] and in test [6] was greater than 100 µM throughout. Moreover, the TGI in [7], in [8] and in test [9] was greater than 100 µM each time.

`COc1ccc(C2[C@@H](Cl)C(=O)N2c2ccc(OC)cc2)cc1` (some centres undefined): the TGI in test [1], in test [2], in test [3], in test [4], in test [6] and in [10] was greater than 100 µM each time. In addition, the TGI in test [7], in test [8] and in [9] was greater than 100 µM in each case.

With `N#Cc1cc([N+](=O)[O-])ccc1NC(=O)C(=O)Nn1c(=S)[nH]c2ccccc2c1=O`, the TGI in test [2], in test [3], in [4], in test [5], in test [6] and in [10] was greater than 100 µM throughout. Moreover, the TGI in test [11], in test [8] and in [9] was greater than 100 µM throughout.

For `O=S1(=O)CC#CC[C@@H](CO)[C@@H](CO)CC#CC1`, the TGI in test [2], in test [3], in test [4], in [5], in [6] and in test [10] was greater than 100 µM each time. Besides, the TGI in test [11], in test [8] and in test [9] was greater than 100 µM each time.

`O=c1[nH]c(C2CCCCC2)nc2ccc(Cl)cc12`: the TGI in test [1], in [2], in test [3], in test [4], in test [6] and in test [10] was greater than 100 µM in each case. The TGI in [7], in [8] and in test [9] was greater than 100 µM each time.

As to `O=C(O)[C@@H](Cc1ccccc1)NS(=O)(=O)c1ccc(-c2ccccc2)cc1`, the GI50 in test [2] was greater than 100 µM; in test [4], greater than 100 µM; in [5], greater than 100 µM; in test [6] it was greater than 100 µM; in [10], 24.9 µM; in test [12], greater than 100 µM. The GI50 in test [8] and in test [9] was greater than 100 µM throughout. For the same compound, the TGI in test [2] was greater than 100 µM; in [4] it was greater than 100 µM; in test [5], greater than 100 µM; in test [6] it was greater than 100 µM; in test [10] it was 59.4 µM; in test [12], greater than 100 µM. The TGI in [8] and in test [9] was greater than 100 µM in each case.

Take `Cc1cccc(Nc2ncc(-c3ccccc3)o2)c1`: the GI50 in test [2], in test [4], in [5], in test [6], in [10] and in [12] was greater than 25 µM in each case. The GI50 is greater than 25 µM in [8] and 8.04 µM in test [9]. In addition, the TGI in [2], in test [4], in test [5], in [6], in [10] and in [12] was greater than 25 µM throughout. Also, the TGI in [8] and in test [9] was greater than 25 µM each time.

Regarding `COc1ccc2c(c1)C(=O)CC(C(N)=O)C2` (centres undefined), the TGI in test [2], in test [4], in test [5], in [6], in [10] and in test [12] was greater than 100 µM each time. Further, the TGI in test [8] and in [9] was greater than 100 µM in each case.

Consider `Cc1ccc(C2=C(c3ccccc3)C(O)(c3ccccc3)C(c3ccccc3)=C2c2ccc(C)cc2)cc1`, for which the TGI in test [2], in test [3], in [4], in [5], in test [6] and in test [10] was greater than 100 µM throughout. The TGI in [11], in test [8] and in test [9] was greater than 100 µM throughout.

Take `Nc1ncnc2c1ncn2Cc1ccc(CCl)cc1`: the GI50 in test [2] is 15.5 µM; in test [4], 25.8 µM; in test [5] it was 34.5 µM; in test [6], 15.2 µM; in test [10] it was 22.3 µM; in [12], 8 µM. Further, the figures for the GI50 in [8] and in [9] were 21.9 µM and 13.6 µM, respectively. The TGI was 31.5 µM in test [2]; 66.5 µM in test [4]; greater than 100 µM in [5]; 28.5 µM in test [6]; 46.8 µM in test [10]; 27.4 µM in [12]. Further, the figures for the TGI in test [8] and in test [9] were 40.6 µM and 37.2 µM, respectively.

Regarding `CC(C)c1cccc(C(C)C)c1NC(=O)/C(Cc1nc2ccc(Cl)cc2[nH]c1=O)=N\NC(=O)C[N+](C)(C)C`, the TGI in test [1], in [2], in test [3], in test [4], in test [5] and in test [6] was greater than 100 µM in each case. Moreover, the TGI in [10] and in test [9] was greater than 100 µM throughout.

In the case of `Cc1nc(-n2nc(-c3ccccc3)cc2-c2ccccc2)sc1C(/C=C\c1ccc([N+](=O)[O-])cc1)=N/NC(=S)NN`, the TGI was greater than 100 µM in [1]; 28.6 µM in [2]; greater than 100 µM in test [3]; greater than 72 µM in test [4]; 52.2 µM in test [5]; greater than 53.4 µM in [6]. Further, the TGI was greater than 58.3 µM in test [10], 87.7 µM in test [12], greater than 100 µM in test [8] and greater than 100 µM in [9].

Consider `OCC1OC(n2cnc3cc(Cl)c(Cl)cc32)C(O)C1O` (centres undefined), for which the GI50 is 34.7 µM in [2]; 12.5 µM in [4]; 9.13 µM in test [5]; 18.5 µM in test [6]; 15.8 µM in test [10]; 26.1 µM in [12]. For the same compound, the figures for the GI50 in test [8] and in test [9] were 13.8 µM and 28.3 µM, respectively. The TGI in test [2] was greater than 72.2 µM; in [4] it was 34.4 µM; in test [5], 35.4 µM; in test [6] it was 37.6 µM; in [10], 40 µM; in test [12], greater than 71.9 µM. Besides, the TGI is 37.5 µM in [8] and greater than 100 µM in test [9].

`OCC1OC(NO)C(O)C(O)C1O` (centres undefined): the TGI in test [2], in test [3], in [4], in [5], in test [6] and in [11] was greater than 100 µM throughout. Further, the TGI in test [7], in [8] and in test [9] was greater than 100 µM each time.

Consider `Clc1ccc(Nc2nnc(COc3ccccc3)c3ccccc23)cc1`, for which the GI50 in test [2] is 3.49 µM; in test [4] it was 1.14 µM; in [5] it was 2.51 µM; in test [6] it was 1.08 µM; in test [10], 0.727 µM; in [12], 0.881 µM. Further, the results for the GI50 in test [8] and in [9] were 2.93 µM and 2.65 µM, respectively. In addition, the TGI in test [2] came out at 15 µM; in test [4], 6.37 µM; in test [5] it was 7.74 µM; in test [6], 4.56 µM; in test [10] it was 5.2 µM; in test [12], 8.44 µM. Moreover, the TGI came to 7.47 µM in test [8] and 7.72 µM in test [9].

In the case of `Cc1ccccc1C1SCc2nc3ccccc3n21` (centres undefined), the TGI in [1], in [2], in test [3], in [4], in test [6] and in test [10] was greater than 100 µM throughout. Besides, the TGI in test [7], in test [8] and in test [9] was greater than 100 µM throughout.

On to `NC(=O)C1CCCN1Cc1ccc2c(c1)OCO2` (centres undefined), for which the TGI in test [2], in test [4], in test [5], in test [6], in test [10] and in [12] was greater than 100 µM throughout. Besides, the TGI in [8] and in [9] was greater than 100 µM each time.

With `C/C=C1/CN2CCC34c5ccccc5N5C(=O)C(C6CC78c9ccccc9N9C(=O)C=CC(C%10CC7N6C/C%10=C/C)C98)=CC(C1CC23)C54` (centres undefined), the GI50 in test [2] is 2.78 µM; in test [6] it was 11.9 µM; in test [10], 5.87 µM; in test [8], 4.66 µM; in test [9], 2.94 µM. Moreover, the TGI in [2] was 8.57 µM and 10.8 µM; in test [4], 18.3 µM; in test [5] it was 20.5 µM and 23.3 µM; in test [6], 12 µM and 25.1 µM; in test [10], 9.81 µM and 20.2 µM; in test [12] it was 33.6 µM. The TGI in test [8] was 12.1 µM and 17.3 µM; in [9] it was 36.8 µM and 12.2 µM.
